From DBAASP
In brackets after ≈: the same amount, converted by molar mass.

Legend:
Test in all cases: ≥ marks a high value that may be exact or a test limit, other limits are often not marked, values filed in µg/mL are converted to µM
[1] = system: Staphylococcus xylosus BCRC 12930
[2] = system: Vibrio alginolyticus BCRC 12829
[3] = system: Streptococcus iniae
[4] = system: Yersinia enterocolitica BCRC 13999
[5] = system: Vibrio harveyi
[6] = system: Streptococcus equinus BCRC 14729
[7] = system: Vibrio parahaemolyticus
[8] = system: Lactococcus garvieae
[9] = system: Staphylococcus aureus BCRC 10780
[10] = system: Vibrio alginolyticus
[11] = system: Vibrio parahaemolyticus BCRC 10806
[12] = system: Listeria monocytogenes BCRC 14845
[13] = system: Staphylococcus aureus BCRC 10781
[14] = system: Pseudomonas aeruginosa BCRC 10944
[15] = system: Enterobacter cloacae BCRC 10401
[16] = system: Klebsiella aerogenes BCRC 10370
[17] = system: Klebsiella oxytoca BCRC 13985
[18] = system: Escherichia coli BCRC 10675
[19] = system: Vibrio anguillarum serotype O1
[20] = system: Bacillus subtilis ATCC 6633
[21] = system: Staphylococcus aureus ATCC 6538
[22] = system: Escherichia coli ATCC 2592
[23] = system: Staphylococcus epidermidis ATCC 12228
[24] = system: Corynebacterium diphtheriae ATCC 8024
[25] = system: Candida albicans ATCC 36232
[26] = system: Staphylococcus aureus
[27] = system: Shigella flexneri ATCC 203
[28] = system: Micrococcus luteus ATCC 9341
[29] = system: Pseudomonas aeruginosa ATCC 9027
[30] = system: Trichophyton mentagrophytes IFO 5466
[31] = system: Staphylococcus aureus KO-4
[32] = system: Trypanosoma brucei brucei GUT Tat3.1
[33] = system: Pseudomonas aeruginosa
[34] = system: Bacillus subtilis IFO 3336
[35] = system: Escherichia coli IFO 3301
[36] = system: Staphylococcus aureus CCARM 3001
[37] = system: Staphylococcus aureus KCTC 1621
[38] = system: Candida albicans KCTC 7965
[39] = system: Pseudomonas aeruginosa KCTC 1637
[40] = system: Escherichia coli KCTC 1682
[41] = system: Pseudomonas aeruginosa CCARM 2095
[42] = system: Staphylococcus aureus CCARM 3543
[43] = system: Staphylococcus epidermidis KCTC 1917
[44] = system: Pseudomonas aeruginosa CCARM 2109
[45] = system: Salmonella typhimurium KCTC 1926
[46] = system: Bacillus subtilis KCTC 3068

CC(C)C[C@H](NC(=O)[C@H](C)NC(=O)[C@H](CC(N)=O)NC(=O)[C@H](C)NC(=O)[C@H](Cc1ccccc1)NC(=O)[C@H](CCCCN)NC(=O)[C@H](CCCCN)NC(=O)[C@H](C)NC(=O)[C@H](CC(C)C)NC(=O)[C@H](CC(N)=O)NC(=O)[C@H](C)NC(=O)[C@H](CC(C)C)NC(=O)[C@H](CCCCN)NC(=O)[C@H](CCCCN)NC(=O)[C@H](C)NC(=O)[C@H](Cc1ccc(O)cc1)NC(=O)[C@H](CC(N)=O)NC(=O)[C@H](Cc1ccc(O)cc1)NC(=O)CN)C(=O)N[C@@H](Cc1c[nH]c2ccccc12)C(=O)O [GYNYAKKLANLAKKFANALW]
MIC [1]: 3.5 µM (≈ 8 µg/mL)
MIC [2]: ≥ 56 µM
MIC [3]: 28 µM (≈ 64 µg/mL)
MIC [4]: 14 µM (≈ 32 µg/mL)
MIC [5]: 3.5 µM (≈ 8 µg/mL)
MIC [6]: ≥ 56 µM
MIC [7]: 1.75 µM (≈ 4 µg/mL)
MIC [8]: 14 µM (≈ 32 µg/mL)
MIC [9]: 7 µM (≈ 16 µg/mL)
MIC [10]: 1.75 µM (≈ 4 µg/mL)
MIC [11]: ≥ 56 µM
MIC [12]: 7 µM (≈ 16 µg/mL)
MIC [13]: 14 µM (≈ 32 µg/mL)
MIC [14]: 14 µM (≈ 32 µg/mL)
MIC [15]: 3.5 µM (≈ 8 µg/mL)
MIC [16]: 7 µM (≈ 16 µg/mL)
MIC [17]: 7 µM (≈ 16 µg/mL)
MIC [18]: 3.5 µM (≈ 8 µg/mL)
MIC [19]: 1.75 µM (≈ 4 µg/mL)

CC(C)C[C@H](NC(=O)[C@@H]1CSSC[C@H](NC(=O)[C@H](C)NC(=O)[C@H](C)NC(=O)[C@@H](N)CC(=O)O)C(=O)N[C@@H](C)C(=O)N[C@@H](C)C(=O)N[C@@H](Cc2cnc[nH]2)C(=O)N1)C(=O)N[C@@H](Cc1ccccc1)C(=O)N[C@@H](CCCN=C(N)N)C(N)=O [DAACAAHCLFR]
MIC [20]: ≥ 84.9 µM
MIC [21]: > 84.9 µM
MIC [22]: ≥ 84.9 µM
MIC [23]: > 84.9 µM
MIC [24]: ≥ 84.9 µM
MIC [25]: ≥ 84.9 µM
MIC [26]: > 84.9 µM
MIC [27]: ≥ 84.9 µM
MIC [28]: ≥ 84.9 µM
MIC [29]: > 84.9 µM

CC[C@H](C)[C@H](NC(=O)[C@H](CCCN=C(N)N)NC(=O)[C@H](CC(C)C)NC(=O)[C@H](CC(C)C)NC(=O)[C@H](CC(C)C)NC(=O)[C@@H](N)CCCN=C(N)N)C(=O)NCC(=O)N[C@@H](CCCN=C(N)N)C(=O)N[C@@H](CCCN=C(N)N)C(N)=O [RLLLRIGRR]
MIC [30]: 13 µM (≈ 15 µg/mL)
MIC [31]: ≥ 521 µM
MIC [32]: ≥ 325 µM
MIC [33]: 347 µM (≈ 400 µg/mL)

NC(N)=NCCC[C@H](NC(=O)[C@H](Cc1cnc[nH]1)NC(=O)[C@H](CCCN=C(N)N)NC(=O)[C@H](Cc1cnc[nH]1)NC(=O)[C@@H](N)CCCN=C(N)N)C(=O)N[C@@H](Cc1cnc[nH]1)C(=O)O [RHRHRH]
MIC [34]: ≥ 111 µM
MIC [35]: ≥ 111 µM

CC(C)C[C@H](NC(=O)[C@H](Cc1c[nH]c2ccccc12)NC(=O)[C@H](CCCNC(=N)N)NC(=O)[C@H](CCCNC(=N)N)NC(=O)[C@H](Cc1c[nH]c2ccccc12)NC(=O)[C@H](CCCNC(=N)N)NC(=O)[C@H](CCCNC(=N)N)NC(=O)[C@H](Cc1c[nH]c2ccccc12)NC(=O)[C@H](CC(C)C)NC(=O)[C@@H](N)CCCNC(=N)N)C(=O)N[C@@H](CCCNC(=N)N)C(=O)O [RLWRRWRRWLR]
MIC [36]: 8 µM (≈ 13.9 µg/mL)
MIC [37]: 4 µM (≈ 6.96 µg/mL)
MIC [38]: ≥ 64 µM
MIC [39]: 8 µM (≈ 13.9 µg/mL)
MIC [40]: 8 µM (≈ 13.9 µg/mL)
MIC [41]: 16 µM (≈ 27.8 µg/mL)
MIC [42]: 2 µM (≈ 3.48 µg/mL)
MIC [43]: 2 µM (≈ 3.48 µg/mL)
MIC [44]: 16 µM (≈ 27.8 µg/mL)
MIC [45]: 2 µM (≈ 3.48 µg/mL)
MIC [46]: 4 µM (≈ 6.96 µg/mL)
